Like-named read-outs stand apart in the source and are kept apart here.
Test: Plasma pharmacokinetics of SHR9146 in mice (LC-MS/MS, non-compartmental analysis)
Format: in vivo, ICR mice
Conditions: both sexes, ICR, mouse, plasma; for bioavailability: mice
Protocol: ICR mice with body weight 16–26 g were supplied by Shanghai Lingchang Biotechnology Co., Ltd. (animal breeding license number SCXK (Shanghai) 2013-0018) and housed at Shanghai Institute of Materia Medica, Chinese Academy of Sciences [animal use license number SYXK (Shanghai) 2015-0027]. The mice used in this study were fasted overnight for 12 h but had free access to water. Food was supplied 4 h post-dose. All experiments in this study were conducted in accordance with the Guidelines for the Care and Use of Laboratory Animals of Shanghai Institute of Materia Medica, Chinese Academy of Sciences.
A total of 30 mice were randomly assigned into five groups with equal numbers, males and females. One group was intravenously administrated with 5 mg/kg SHR9146 dissolved in […] plus 95% saline (adjusted pH to 4.0) under sterile conditions. The remaining four groups were administered respectively with a single dose of 20 , 40, or 80 mg/kg or multiple doses of 20 mg/kg twice daily for 7 days, by oral gavage of SHR9146 dissolved in 0.5% CMC-Na. Blood samples were obtained from the fossa orbitalis vein at 15 and 30 min and 1.0, 2.0, 4.0, 6.0, 8.0, 10.0, and 24.0 h after oral gavage administration. An additional 5-min time point was included for iv injection, as well as the pre-drug administration time points on the fifth, sixth, and seventh days in the multiple-dose group. The blood samples were collected in EDTA K2 anticoagulant blood collection tubes and centrifuged at 1,000 rpm for 5 min at 4°C. The supernatant plasma samples were thus produced.
Briefly as follows, an aliquot of 25-μL plasma or tissue homogenate was spiked with 100 μL of internal standard solution (1 μg/mL for plasma, 0.2 μg/mL for tissue homogenate) and 300 μL of methanol added and vortex mixed for 60 s. The mixture was then centrifuged at 14,000 rpm at 4°C for 5.0 min, and the supernatant was diluted with methanol–water (4:1, v/v) in a ratio of 1:9 for the plasma or 1:1 for the tissue homogenate, and 5 μL of the resulting solution was injected for the LC-MS/MS analysis.
The pharmacokinetic parameters of SHR9146 in mouse plasma were estimated by Phoenix 1.4 software using a non-compartmental model.
The mean concentration–time curves of SHR9146 in mouse plasma after a single oral gavage dose of 20, 40, or 80 mg/kg, or a single intravenous dose of 5 mg/kg, or the 7th-day steady state after twice-daily multiple oral doses of 20 mg/kg are shown in Figure 5 (Table S6).

[1] = oral, 40 mg/kg, 40 mg/kg i.g. single, read-out: plasma drug concentration, mean (n=6)
[2] = oral, 40 mg/kg, 40 mg/kg i.g. single, read-out: plasma drug concentration, individual mice #1-#6
[3] = oral, 80 mg/kg, 80 mg/kg i.g. single, read-out: plasma drug concentration, individual mice #1-#6
[4] = oral, 80 mg/kg, 80 mg/kg i.g. single, read-out: plasma drug concentration, mean (n=6)
[5] = po, 20 mg/kg, 20 mg/kg i.g. bid, 7 days (7th-day steady state), all mice (Totol, 3 male + 3 female)

Work on `OCCn1cc(-c2ccc(N3CCC([C@H]4c5c(F)cccc5-c5cncn54)CC3)cc2)cn1` [SHR9146] yielded a concentration at 1 h [1] of 9980 ng/mL, a concentration at 2 h [1] of 4920 ng/mL and a concentration at 3 h [1] of 1130 ng/mL. It also gave a concentration at 4 h [1] of 4350 ng/mL, a concentration at 6 h [1] of 1010 ng/mL and a concentration at 8 h [2] of 582 ng/mL. The concentration at 10 h [2] was 293 ng/mL, the concentration at 24 h [2] was 136 ng/mL and the concentration at 0.25 h (oral, 80 mg/kg, 80 mg/kg i.g. single, 0.25 h, read-out: plasma drug concentration, mean (n=6)) was 6130 ng/mL. The concentration at 0.5 h [3] was 9320 ng/mL, the concentration at 0.5 h [4] was 11300 ng/mL and the concentration at 1 h [4] was 12900 ng/mL. For the same compound, the concentration at 2 h [4] was 8930 ng/mL, the concentration at 3 h [4] was 4670 ng/mL and the concentration at 4 h [4] was 8950 ng/mL. For the same compound, the concentration at 6 h [4] was 2260 ng/mL, the concentration at 8 h [4] was 1200 ng/mL and the concentration at 10 h [4] was 1700 ng/mL. For the same compound, the concentration at 24 h [3] was 96 ng/mL, the AUC(0-inf) [5] was 24400 ng·h/mL and the Cmax at 7 days [5] was 10700 ± 811 ng/mL. The half-life at 7 days [5] was 1.01 h, the AUC(0-t) (po, 20 mg/kg, 20 mg/kg i.g. bid, 7 days (7th-day steady state), all mice (Totol, 3 male + 3 female), read-out: AUC0-t) was 24200 ng·h/mL and the Tmax (po, 20 mg/kg, 20 mg/kg i.g. bid, 7 days (7th-day steady state), all mice (Totol, 3 male + 3 female), read-out: Tmax) was 0.833 ± 0.258 h. It also gave a bioavailability (po, 20 mg/kg, 20 mg/kg i.g. single dose vs 5 mg/kg i.v., one value for the dose, read-out: F (absolute bioavailability)) of 57.7%, an AUC(0-inf) (po, 20 mg/kg, 20 mg/kg i.g. single dose, all mice (Totol, 3 male + 3 female)) of 16300 ng·h/mL and an AUC(0-t) (po, 20 mg/kg, 20 mg/kg i.g. single dose, all mice (Totol, 3 male + 3 female), read-out: AUC0-t) of 15600 ng·h/mL. For the same compound, the Cmax (po, 20 mg/kg, 20 mg/kg i.g. single dose, all mice (Totol, 3 male + 3 female), read-out: Cmax) was 9610 ± 3110 ng/mL, the Tmax (po, 20 mg/kg, 20 mg/kg i.g. single dose, all mice (Totol, 3 male + 3 female), read-out: Tmax) was 0.458 ± 0.292 h and the half-life (po, 20 mg/kg, 20 mg/kg i.g. single dose, all mice (Totol, 3 male + 3 female), read-out: t1/2 (converted)) was 0.699 h. It also gave a bioavailability (po, 40 mg/kg, 40 mg/kg i.g. single dose vs 5 mg/kg i.v., one value for the dose, read-out: F (absolute bioavailability)) of 40.2%, an AUC(0-t) (po, 40 mg/kg, 40 mg/kg i.g. single dose, all mice (Totol, 3 male + 3 female), read-out: AUC0-t) of 21700 ng·h/mL and a Cmax (po, 40 mg/kg, 40 mg/kg i.g. single dose, all mice (Totol, 3 male + 3 female), read-out: Cmax) of 12400 ± 4120 ng/mL. For the same compound, the Tmax (po, 40 mg/kg, 40 mg/kg i.g. single dose, all mice (Totol, 3 male + 3 female), read-out: Tmax) was 1.58 ± 1.28 h, the bioavailability (po, 80 mg/kg, 80 mg/kg i.g. single dose vs 5 mg/kg i.v., one value for the dose, read-out: F (absolute bioavailability)) was 64.7% and the AUC(0-inf) (po, 80 mg/kg, 80 mg/kg i.g. single dose, all mice (Totol, 3 male + 3 female)) was 70900 ng·h/mL. For the same compound, the AUC(0-t) (po, 80 mg/kg, 80 mg/kg i.g. single dose, all mice (Totol, 3 male + 3 female), read-out: AUC0-t) was 70000 ng·h/mL, the Cmax (po, 80 mg/kg, 80 mg/kg i.g. single dose, all mice (Totol, 3 male + 3 female), read-out: Cmax) was 17100 ± 6290 ng/mL and the Tmax (po, 80 mg/kg, 80 mg/kg i.g. single dose, all mice (Totol, 3 male + 3 female), read-out: Tmax) was 1.5 ± 1.34 h. It also gave a half-life (po, 80 mg/kg, 80 mg/kg i.g. single dose, all mice (Totol, 3 male + 3 female), read-out: t1/2 (converted)) of 2.4 h, a bioavailability (po, 80 mg/kg, single oral doses 20, 40, 80 mg/kg, read-out: absolute (oral) bioavailability, mean over single oral doses) of 54.2% and a bioavailability (po, 80 mg/kg, single oral doses 20, 40, 80 mg/kg, read-out: absolute (oral) bioavailability, range over single oral doses) of 40.2 to 64.7%. It also gave an AUC(0-t) (po, after oral dosing from 20 to 80 mg/kg, mouse plasma, read-out: AUC0-t, range over oral doses) of 15600 to 70000 ng·h/mL, a Cmax (po, after oral dosing from 20 to 80 mg/kg, mouse plasma, read-out: Cmax, range over oral doses) of 8750 to 12900 ng/mL and a Tmax (po, after oral gavage, mouse plasma, read-out: mean Tmax, range over oral doses) of 0.458 to 1.58 h. It also gave a Tmax (po, oral 20 to 80 mg/kg pooled, mouse plasma, n=6, read-out: Tmax, post-oral) of 0.79 ± 0.36 h, a half-life (po, oral 20 to 80 mg/kg pooled, mouse plasma, n=6, read-out: t1/2, post-oral (converted)) of 1.59 ± 0.853 h and an MRT inf (po, 20 mg/kg i.g. single dose, all mice (Totol, 3 male + 3 female), read-out: MRT0-∞) of 1.64 h.

Source: publication PMC10410440, “Preclinical PK investigation of a novel IDO1/TDO dual inhibitor—SHR9146 in mouse plasma and tissues by LC-MS/MS” (Frontiers in Oncology, 2023)
